Tests used:
Settings in all cases: binder
CK2a2 = CK2a2 (Homo sapiens, UniProt P19784)
MSSK1 = MSSK1 (Homo sapiens, UniProt Q9UPE1)
HIPK2 = HIPK2 (Homo sapiens, UniProt Q9H2X6)
CASK = biological target: T1, CASK (Homo sapiens, UniProt O14936)
T1 sequence (O14936 1-926): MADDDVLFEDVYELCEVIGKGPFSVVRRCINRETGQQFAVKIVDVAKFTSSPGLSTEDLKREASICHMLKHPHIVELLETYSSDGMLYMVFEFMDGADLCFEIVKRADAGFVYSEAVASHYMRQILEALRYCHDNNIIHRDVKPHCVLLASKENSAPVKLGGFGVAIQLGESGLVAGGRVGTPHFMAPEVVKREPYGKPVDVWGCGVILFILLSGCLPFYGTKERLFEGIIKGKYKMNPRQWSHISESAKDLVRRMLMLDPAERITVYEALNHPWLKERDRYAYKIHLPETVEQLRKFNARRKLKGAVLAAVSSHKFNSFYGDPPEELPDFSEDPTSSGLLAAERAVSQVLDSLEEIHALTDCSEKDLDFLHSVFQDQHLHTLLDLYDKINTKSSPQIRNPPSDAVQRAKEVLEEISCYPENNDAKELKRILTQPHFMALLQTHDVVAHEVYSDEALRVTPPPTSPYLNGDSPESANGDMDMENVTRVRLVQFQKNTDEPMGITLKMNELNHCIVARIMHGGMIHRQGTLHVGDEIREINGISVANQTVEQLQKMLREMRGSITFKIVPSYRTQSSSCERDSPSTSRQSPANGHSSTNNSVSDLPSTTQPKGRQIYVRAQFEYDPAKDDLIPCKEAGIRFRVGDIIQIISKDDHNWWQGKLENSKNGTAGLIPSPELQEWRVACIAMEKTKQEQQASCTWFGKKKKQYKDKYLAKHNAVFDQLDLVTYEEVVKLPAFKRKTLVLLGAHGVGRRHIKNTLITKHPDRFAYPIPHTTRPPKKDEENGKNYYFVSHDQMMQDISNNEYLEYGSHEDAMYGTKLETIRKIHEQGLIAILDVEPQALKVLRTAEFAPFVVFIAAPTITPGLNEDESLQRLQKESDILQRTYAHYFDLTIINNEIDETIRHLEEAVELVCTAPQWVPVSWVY

MST2 = biological target: T2, MST2 (Homo sapiens, UniProt Q13188)
T2 sequence (Q13188 1-491): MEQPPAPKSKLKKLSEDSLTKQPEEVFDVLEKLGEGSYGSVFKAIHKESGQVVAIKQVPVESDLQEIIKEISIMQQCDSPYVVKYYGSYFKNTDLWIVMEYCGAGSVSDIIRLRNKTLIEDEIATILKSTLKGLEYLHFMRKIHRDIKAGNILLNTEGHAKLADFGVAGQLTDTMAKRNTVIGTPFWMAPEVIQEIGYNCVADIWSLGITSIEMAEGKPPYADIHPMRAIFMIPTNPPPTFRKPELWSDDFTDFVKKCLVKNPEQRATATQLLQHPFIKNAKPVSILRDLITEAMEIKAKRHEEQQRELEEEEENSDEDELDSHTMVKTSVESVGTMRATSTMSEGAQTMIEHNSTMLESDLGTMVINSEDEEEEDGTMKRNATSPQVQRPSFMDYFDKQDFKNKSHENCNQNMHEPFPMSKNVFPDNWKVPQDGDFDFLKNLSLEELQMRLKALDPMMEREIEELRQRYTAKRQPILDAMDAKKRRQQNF

FGFR1 = FGFR1 (Homo sapiens, UniProt P11362)
FGFR1, sequence (P11362 whole entry): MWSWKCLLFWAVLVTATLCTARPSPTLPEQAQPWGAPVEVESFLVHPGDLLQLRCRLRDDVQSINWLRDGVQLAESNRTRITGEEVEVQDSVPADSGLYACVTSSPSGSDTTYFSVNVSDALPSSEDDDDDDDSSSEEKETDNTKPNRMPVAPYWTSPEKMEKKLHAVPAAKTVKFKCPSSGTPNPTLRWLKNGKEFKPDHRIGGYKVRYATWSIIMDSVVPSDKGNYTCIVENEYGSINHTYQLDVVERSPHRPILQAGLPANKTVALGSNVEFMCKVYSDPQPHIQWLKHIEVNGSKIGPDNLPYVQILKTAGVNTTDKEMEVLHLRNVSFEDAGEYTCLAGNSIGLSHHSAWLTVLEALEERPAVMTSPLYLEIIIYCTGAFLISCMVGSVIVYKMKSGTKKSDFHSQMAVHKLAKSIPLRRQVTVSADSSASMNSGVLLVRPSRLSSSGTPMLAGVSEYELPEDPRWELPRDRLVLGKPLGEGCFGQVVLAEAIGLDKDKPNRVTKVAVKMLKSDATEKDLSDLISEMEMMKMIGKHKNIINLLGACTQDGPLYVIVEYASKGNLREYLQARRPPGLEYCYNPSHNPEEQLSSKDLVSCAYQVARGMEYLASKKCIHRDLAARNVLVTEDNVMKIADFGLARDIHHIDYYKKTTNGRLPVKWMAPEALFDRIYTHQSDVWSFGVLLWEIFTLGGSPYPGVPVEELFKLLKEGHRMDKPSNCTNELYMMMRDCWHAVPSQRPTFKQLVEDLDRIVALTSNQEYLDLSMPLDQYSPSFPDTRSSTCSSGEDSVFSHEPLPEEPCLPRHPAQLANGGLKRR

CDK2 = CDK2 (Homo sapiens, UniProt P24941)
CDKL1 = CDKL1 (Homo sapiens, UniProt Q00532)
CDKL1, sequence (Q00532 whole entry): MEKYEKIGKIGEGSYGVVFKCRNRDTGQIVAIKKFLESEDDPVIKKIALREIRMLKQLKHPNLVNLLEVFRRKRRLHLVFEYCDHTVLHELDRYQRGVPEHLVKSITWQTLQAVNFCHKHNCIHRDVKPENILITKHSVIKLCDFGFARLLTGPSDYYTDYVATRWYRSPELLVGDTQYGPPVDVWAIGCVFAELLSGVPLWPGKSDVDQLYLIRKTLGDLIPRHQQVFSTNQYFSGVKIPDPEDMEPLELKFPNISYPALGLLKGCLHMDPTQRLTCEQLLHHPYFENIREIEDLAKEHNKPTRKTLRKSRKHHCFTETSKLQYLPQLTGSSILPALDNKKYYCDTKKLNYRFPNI

DRAK1 = biological target: T3, DRAK1 (Homo sapiens, UniProt Q9UEE5)
T3 sequence (Q9UEE5 1-414): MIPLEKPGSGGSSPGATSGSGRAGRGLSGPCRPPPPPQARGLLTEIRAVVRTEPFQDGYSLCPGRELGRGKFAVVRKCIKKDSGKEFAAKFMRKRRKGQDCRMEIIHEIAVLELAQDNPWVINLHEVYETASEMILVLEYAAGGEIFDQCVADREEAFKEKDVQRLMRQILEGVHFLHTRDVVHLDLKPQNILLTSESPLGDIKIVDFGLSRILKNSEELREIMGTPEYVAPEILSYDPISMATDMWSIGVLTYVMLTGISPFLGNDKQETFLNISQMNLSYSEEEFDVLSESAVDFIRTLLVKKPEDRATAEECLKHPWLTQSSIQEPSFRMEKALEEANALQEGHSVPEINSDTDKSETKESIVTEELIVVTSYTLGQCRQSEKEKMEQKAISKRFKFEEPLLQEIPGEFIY

CK2a1 = CK2a1 (Homo sapiens, UniProt P68400)
CK2a1, sequence (P68400 whole entry): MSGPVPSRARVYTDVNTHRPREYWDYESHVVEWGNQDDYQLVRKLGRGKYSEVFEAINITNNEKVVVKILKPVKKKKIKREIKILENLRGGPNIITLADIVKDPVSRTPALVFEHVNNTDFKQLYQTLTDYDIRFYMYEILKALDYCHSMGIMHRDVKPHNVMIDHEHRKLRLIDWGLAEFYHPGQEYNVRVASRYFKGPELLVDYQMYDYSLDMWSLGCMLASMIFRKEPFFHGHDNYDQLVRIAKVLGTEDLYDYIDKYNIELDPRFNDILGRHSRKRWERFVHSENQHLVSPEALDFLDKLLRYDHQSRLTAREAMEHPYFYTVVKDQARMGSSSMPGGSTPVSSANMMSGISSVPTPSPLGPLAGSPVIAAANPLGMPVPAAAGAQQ

CaMK2b = CaMK2b (Homo sapiens, UniProt Q13554)
CaMK2b, sequence (Q13554 whole entry): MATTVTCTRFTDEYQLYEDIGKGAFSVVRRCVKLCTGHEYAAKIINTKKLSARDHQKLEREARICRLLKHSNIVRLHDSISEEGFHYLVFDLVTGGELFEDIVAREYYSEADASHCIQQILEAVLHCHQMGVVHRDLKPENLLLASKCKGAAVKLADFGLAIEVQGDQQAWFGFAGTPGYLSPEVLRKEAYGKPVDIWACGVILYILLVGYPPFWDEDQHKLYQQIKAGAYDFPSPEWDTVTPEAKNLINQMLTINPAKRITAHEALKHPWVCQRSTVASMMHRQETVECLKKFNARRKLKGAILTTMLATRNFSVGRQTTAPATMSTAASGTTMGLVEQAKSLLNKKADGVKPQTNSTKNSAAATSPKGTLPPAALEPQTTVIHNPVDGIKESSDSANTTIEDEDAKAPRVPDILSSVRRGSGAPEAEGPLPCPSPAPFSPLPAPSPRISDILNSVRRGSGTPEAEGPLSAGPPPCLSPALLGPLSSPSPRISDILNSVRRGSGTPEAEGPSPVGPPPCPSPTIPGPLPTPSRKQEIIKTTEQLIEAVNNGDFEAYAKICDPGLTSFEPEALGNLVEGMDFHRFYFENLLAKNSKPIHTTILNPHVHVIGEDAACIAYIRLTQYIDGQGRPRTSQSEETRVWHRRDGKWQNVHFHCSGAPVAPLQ

CLK1 = CLK1 (Homo sapiens, UniProt P49759)
CLK1, sequence (P49759 whole entry): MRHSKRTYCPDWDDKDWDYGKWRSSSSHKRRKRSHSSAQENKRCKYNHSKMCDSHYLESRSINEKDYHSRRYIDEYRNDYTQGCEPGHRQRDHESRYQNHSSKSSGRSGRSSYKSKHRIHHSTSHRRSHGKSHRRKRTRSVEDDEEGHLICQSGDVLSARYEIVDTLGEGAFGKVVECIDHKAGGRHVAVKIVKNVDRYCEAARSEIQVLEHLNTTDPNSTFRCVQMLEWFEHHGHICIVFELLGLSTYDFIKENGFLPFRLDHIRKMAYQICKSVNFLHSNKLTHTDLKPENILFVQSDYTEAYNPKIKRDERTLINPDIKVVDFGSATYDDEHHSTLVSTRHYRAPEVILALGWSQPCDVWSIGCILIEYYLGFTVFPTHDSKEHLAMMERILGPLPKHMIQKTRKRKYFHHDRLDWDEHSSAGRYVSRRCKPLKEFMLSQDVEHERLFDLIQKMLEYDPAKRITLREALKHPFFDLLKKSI

CK2a2, sequence (P19784 whole entry): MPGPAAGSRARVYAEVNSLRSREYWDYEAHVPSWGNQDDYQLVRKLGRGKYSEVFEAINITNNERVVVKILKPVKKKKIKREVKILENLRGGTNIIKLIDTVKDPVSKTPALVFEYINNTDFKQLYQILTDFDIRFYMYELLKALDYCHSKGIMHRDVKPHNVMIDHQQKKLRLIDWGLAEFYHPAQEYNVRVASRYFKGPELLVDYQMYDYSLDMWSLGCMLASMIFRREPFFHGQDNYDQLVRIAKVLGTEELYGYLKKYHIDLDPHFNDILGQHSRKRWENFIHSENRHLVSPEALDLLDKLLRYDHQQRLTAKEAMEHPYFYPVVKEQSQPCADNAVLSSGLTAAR
HIPK2, sequence (Q9H2X6 whole entry): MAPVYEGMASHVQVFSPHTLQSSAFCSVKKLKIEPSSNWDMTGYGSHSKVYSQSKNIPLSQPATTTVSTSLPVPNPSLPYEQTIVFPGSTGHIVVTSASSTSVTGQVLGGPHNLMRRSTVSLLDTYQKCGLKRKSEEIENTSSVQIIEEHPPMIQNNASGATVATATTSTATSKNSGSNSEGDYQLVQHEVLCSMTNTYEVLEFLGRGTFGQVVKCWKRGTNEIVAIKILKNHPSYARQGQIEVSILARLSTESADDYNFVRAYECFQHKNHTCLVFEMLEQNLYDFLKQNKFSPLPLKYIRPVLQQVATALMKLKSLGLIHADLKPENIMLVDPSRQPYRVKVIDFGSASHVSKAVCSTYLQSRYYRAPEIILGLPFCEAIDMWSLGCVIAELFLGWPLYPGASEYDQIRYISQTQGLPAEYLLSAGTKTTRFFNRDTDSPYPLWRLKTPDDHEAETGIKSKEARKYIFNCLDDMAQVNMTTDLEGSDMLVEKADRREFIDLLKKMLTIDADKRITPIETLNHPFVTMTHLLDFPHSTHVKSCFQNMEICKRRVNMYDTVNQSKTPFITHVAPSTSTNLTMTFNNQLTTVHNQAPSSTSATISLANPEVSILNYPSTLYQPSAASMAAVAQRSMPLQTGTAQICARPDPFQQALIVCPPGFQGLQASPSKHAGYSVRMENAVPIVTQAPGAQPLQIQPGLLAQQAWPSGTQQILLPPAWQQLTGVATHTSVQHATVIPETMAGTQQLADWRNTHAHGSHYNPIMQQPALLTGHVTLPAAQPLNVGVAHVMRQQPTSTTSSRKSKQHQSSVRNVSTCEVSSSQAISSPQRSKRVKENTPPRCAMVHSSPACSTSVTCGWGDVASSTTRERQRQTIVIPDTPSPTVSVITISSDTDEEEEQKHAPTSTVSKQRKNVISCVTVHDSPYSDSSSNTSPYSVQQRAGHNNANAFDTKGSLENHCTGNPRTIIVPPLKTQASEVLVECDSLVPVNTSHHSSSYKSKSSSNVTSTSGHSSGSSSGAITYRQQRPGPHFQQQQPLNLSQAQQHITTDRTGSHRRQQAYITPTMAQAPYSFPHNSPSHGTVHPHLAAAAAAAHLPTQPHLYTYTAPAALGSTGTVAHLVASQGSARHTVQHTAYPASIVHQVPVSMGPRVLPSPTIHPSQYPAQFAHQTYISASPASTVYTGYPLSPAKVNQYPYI
MSSK1, sequence (Q9UPE1 whole entry): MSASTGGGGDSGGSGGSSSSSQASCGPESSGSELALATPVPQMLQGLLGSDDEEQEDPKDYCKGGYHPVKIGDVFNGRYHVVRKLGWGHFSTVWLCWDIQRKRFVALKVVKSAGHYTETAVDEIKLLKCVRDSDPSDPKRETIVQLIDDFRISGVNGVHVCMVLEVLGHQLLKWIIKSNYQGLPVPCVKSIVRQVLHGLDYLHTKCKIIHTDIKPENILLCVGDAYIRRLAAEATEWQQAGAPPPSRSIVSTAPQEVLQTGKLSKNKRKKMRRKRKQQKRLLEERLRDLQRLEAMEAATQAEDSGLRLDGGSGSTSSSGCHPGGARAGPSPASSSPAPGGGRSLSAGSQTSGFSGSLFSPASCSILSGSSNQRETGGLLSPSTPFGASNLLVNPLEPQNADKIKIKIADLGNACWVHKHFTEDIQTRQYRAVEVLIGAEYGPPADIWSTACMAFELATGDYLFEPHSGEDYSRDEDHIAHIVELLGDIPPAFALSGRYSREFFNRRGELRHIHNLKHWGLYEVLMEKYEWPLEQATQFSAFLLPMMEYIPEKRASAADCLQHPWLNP

Cc1cccc(-c2ccc(-c3cc4cnc(Nc5cc(C(F)(F)F)ccc5C)nc4n(CCCCN)c3=O)c(Cl)c2)n1 [compound 28, 8-(4-Aminobutyl)-6-(2-chloro-4-(6-methylpyridin-2-yl)phenyl)-2-((2-methyl-5-(trifluoromethyl)phenyl)amino)pyrido[2,3-d]pyrimidin-7(8H)-one]
ΔTm 28 (CK2a2): -4.2 °C
ΔTm 28 (MSSK1): -0.9 °C
ΔTm 28 (HIPK2): -0.5 °C
ΔTm 28 (CASK): 0.0 °C
ΔTm 28 (MST2): 10.1 °C
ΔTm 28 (FGFR1): 1.1 °C
ΔTm 28 (CDK2): -0.2 °C
ΔTm 28 (CDKL1): 0.7 °C
ΔTm 28 (DRAK1): 0.3 °C
ΔTm 28 (CK2a1): -0.6 °C
ΔTm 28 (CaMK2b): 0.7 °C
ΔTm 28 (CLK1): 0.6 °C

Cc1cccc(-c2ccc(-c3cc4cnc(Nc5ccc(CCCO)cc5)nc4n(CCCCN)c3=O)c(Cl)c2)n1 [compound 30, 8-(4-Aminobutyl)-6-(2-chloro-4-(6-methylpyridin-2-yl)phenyl)-2-((4-(3-hydroxypropyl)phenyl)amino)pyrido[2,3-d]pyrimidin-7(8H)-one]
ΔTm 30 (CK2a2): -1.8 °C
ΔTm 30 (MSSK1): -0.2 °C
ΔTm 30 (HIPK2): 2.6 °C
ΔTm 30 (CASK): -0.5 °C
ΔTm 30 (MST2): 15.0 °C
ΔTm 30 (FGFR1): 1.0 °C
ΔTm 30 (CDK2): 4.8 °C
ΔTm 30 (CDKL1): 1.6 °C
ΔTm 30 (DRAK1): 4.0 °C
ΔTm 30 (CK2a1): -1.1 °C
ΔTm 30 (CaMK2b): 0.3 °C
ΔTm 30 (CLK1): -0.2 °C

Cc1cccc(-c2ccc(-c3cc4cnc(Nc5ccc(C)c(O)c5)nc4n(CCCCN)c3=O)c(Cl)c2)n1 [compound 32, 8-(4-Aminobutyl)-6-(2-chloro-4-(6-methylpyridin-2-yl)phenyl)-2-((3-hydroxy-4-methylphenyl)amino)pyrido[2,3-d]pyrimidin-7(8H)-one]
ΔTm 32 (CK2a2): -1.6 °C
ΔTm 32 (MSSK1): -0.2 °C
ΔTm 32 (HIPK2): 2.6 °C
ΔTm 32 (CASK): 0.0 °C
ΔTm 32 (MST2): 14.7 °C
ΔTm 32 (FGFR1): 2.0 °C
ΔTm 32 (CDK2): 5.3 °C
ΔTm 32 (CDKL1): 1.9 °C
ΔTm 32 (DRAK1): 5.1 °C
ΔTm 32 (CK2a1): -0.3 °C
ΔTm 32 (CaMK2b): 0.3 °C
ΔTm 32 (CLK1): 0.7 °C

Cc1cccc(-c2ccc(-c3cc4cnc(NCCCN5CCCC5=O)nc4n(CCCCN)c3=O)c(Cl)c2)n1 [compound 27, MR30]
ΔTm MR30 (27) (CK2a2): -6.3 °C
ΔTm MR30 (27) (MSSK1): -0.4 °C
ΔTm MR30 (27) (HIPK2): 0.0 °C
ΔTm MR30 (27) (CASK): -0.3 °C
ΔTm MR30 (27) (MST2): 5.9 °C
ΔTm MR30 (27) (FGFR1): 0.2 °C
ΔTm MR30 (27) (CDK2): 1.4 °C
ΔTm MR30 (27) (CDKL1): 0.9 °C
ΔTm MR30 (27) (DRAK1): -0.4 °C
ΔTm MR30 (27) (CK2a1): -0.4 °C
ΔTm MR30 (27) (CaMK2b): -1.1 °C
ΔTm MR30 (27) (CLK1): -0.7 °C

Cc1cccc(-c2ccc(-c3cc4cnc(Nc5ccc(O)cc5)nc4n(CCCCN)c3=O)c(Cl)c2)n1 [compound 31, 8-(4-Aminobutyl)-6-(2-chloro-4-(6-methylpyridin-2-yl)phenyl)-2-((4-hydroxyphenyl)amino) pyrido[2,3-d]pyrimidin-7(8H)-one]
ΔTm 31 (CK2a2): -0.9 °C
ΔTm 31 (MSSK1): 0.0 °C
ΔTm 31 (HIPK2): 2.6 °C
ΔTm 31 (CASK): -0.2 °C
ΔTm 31 (MST2): 14.3 °C
ΔTm 31 (FGFR1): 1.5 °C
ΔTm 31 (CDK2): 6.7 °C
ΔTm 31 (CDKL1): 2.1 °C
ΔTm 31 (DRAK1): 4.5 °C
ΔTm 31 (CK2a1): 0.0 °C
ΔTm 31 (CaMK2b): -0.4 °C
ΔTm 31 (CLK1): 0.8 °C

Cc1cccc(-c2ccc(-c3cc4cnc(NCCCN5CCNCC5)nc4n(CCCCN)c3=O)c(Cl)c2)n1 [compound 29, 8-(4-Aminobutyl)-6-(2-chloro-4-(6-methylpyridin-2-yl)phenyl)-2-((3-(piperazin-1-yl)propyl)amino)pyrido[2,3-d]pyrimidin-7(8H)-one]
ΔTm 29 (CK2a2): -1.6 °C
ΔTm 29 (MSSK1): -0.3 °C
ΔTm 29 (HIPK2): 0.6 °C
ΔTm 29 (CASK): -0.5 °C
ΔTm 29 (MST2): 9.1 °C
ΔTm 29 (FGFR1): 0.7 °C
ΔTm 29 (CDK2): 0.9 °C
ΔTm 29 (CDKL1): 0.5 °C
ΔTm 29 (DRAK1): 1.3 °C
ΔTm 29 (CK2a1): -0.2 °C
ΔTm 29 (CaMK2b): -0.5 °C
ΔTm 29 (CLK1): -0.3 °C

Reference: publication doi:10.1101/2023.11.24.568596v1 (biorxiv, 2023)
